Assay results published in ChEMBL document CHEMBL2057068, “Quinolylhydrazones as novel inhibitors of Plasmodium falciparum serine protease PfSUB1” (Bioorg Med Chem Lett, 2012).

Each molecule was assayed against T1, Subtilisin-like protease 1 (Plasmodium falciparum) (UniProt O61142) (assay: Inhibition of Plasmodium falciparum SUB1 assessed as residual hydrolytic activity at 50 uM by fluorimetric assay).
T1 sequence (whole entry): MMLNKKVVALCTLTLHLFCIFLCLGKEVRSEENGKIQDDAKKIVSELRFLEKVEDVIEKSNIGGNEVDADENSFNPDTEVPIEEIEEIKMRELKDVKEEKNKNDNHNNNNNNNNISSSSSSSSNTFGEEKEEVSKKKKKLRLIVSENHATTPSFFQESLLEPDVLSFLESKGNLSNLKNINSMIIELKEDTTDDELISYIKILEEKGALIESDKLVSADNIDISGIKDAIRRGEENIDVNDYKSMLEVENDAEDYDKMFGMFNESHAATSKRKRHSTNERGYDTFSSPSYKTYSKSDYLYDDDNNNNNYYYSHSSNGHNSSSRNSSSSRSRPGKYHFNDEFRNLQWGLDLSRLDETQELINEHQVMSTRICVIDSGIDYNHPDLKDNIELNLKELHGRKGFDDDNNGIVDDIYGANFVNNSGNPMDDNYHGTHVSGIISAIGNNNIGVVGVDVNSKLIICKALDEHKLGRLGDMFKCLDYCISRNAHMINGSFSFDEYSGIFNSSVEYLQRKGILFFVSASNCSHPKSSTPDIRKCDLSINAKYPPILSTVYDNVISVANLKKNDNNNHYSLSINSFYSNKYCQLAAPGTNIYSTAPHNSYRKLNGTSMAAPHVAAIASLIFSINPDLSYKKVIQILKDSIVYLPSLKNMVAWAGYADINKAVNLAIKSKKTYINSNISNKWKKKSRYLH
`CC(=O)Nc1ccc(/C=N/Nc2cc(C)nc3cc4c(cc23)OCO4)cc1` was tested, and the Activity was 70.9%. `CCOC(OCC)c1ccc(/C=N/Nc2cc(C)nc3cc4c(cc23)OCO4)cc1` gave an Activity of 75.6%. For `Cc1cc(N/N=C/c2ccccc2[N+](=O)[O-])c2cc3c(cc2n1)OCO3`, the Activity was 38.6%. `Cc1cc(NNC(=O)c2ccc(C#N)cc2)c2cc3c(cc2n1)OCO3` gave an Activity of 85.5%. `N#Cc1ccc(/C=N/Nc2ccnc3ccccc23)cc1` showed an Activity of 74.3%. For `Cc1cc(N/N=C/c2ccc(/C(N)=N/O)cc2)c2cc3c(cc2n1)OCO3`, the Activity was 73.9%. Molecule `COc1ccc2nc(C)cc(N/N=C/c3ccc([N+](=O)[O-])cc3)c2c1` has an Activity of 12.3%. For `Cc1cc(N/N=C/c2ccc(F)cc2)c2cc3c(cc2n1)OCO3`, the Activity was 97%. Work on `O=[N+]([O-])c1ccc(C=NNc2nc3ccccc3[nH]2)cc1` yielded an Activity of 43.1%. With `CSc1ccc(/C=N/Nc2cc(C)nc3cc4c(cc23)OCO4)cc1` the Activity was 77.5%. Work on `Cc1cc(N/N=C/c2ccc(C(=O)O)cc2)c2cc3c(cc2n1)OCO3` yielded an Activity of 75.5%. `Cc1cc(N/N=C/c2ccc(C(F)(F)F)cc2C(F)(F)F)c2cc3c(cc2n1)OCO3` gave an Activity of 62.1%. `Cc1cc(N/N=C/c2ccc(NS(C)(=O)=O)cc2)c2cc3c(cc2n1)OCO3` gave an Activity of 72.2%. For `Cc1cc(N/N=C/c2ccc([S+](C)[O-])cc2)c2cc3c(cc2n1)OCO3` (configuration not stated), the Activity was 92.4%. Work on `COc1ccc2nccc(N/N=C/c3ccc([N+](=O)[O-])cc3)c2c1` yielded an Activity of 32.4%. In the case of `Cc1cc(/N=C/c2ccc([N+](=O)[O-])cc2)c2cc3c(cc2n1)OCO3`, the Activity is reported as 72.2%. Molecule `Cc1cc(N/N=C/c2ccc(Br)cc2)c2cc3c(cc2n1)OCO3` has an Activity of 78.2%. Work on `Cc1cc(NNC(=O)c2ccc([N+](=O)[O-])cc2)c2cc3c(cc2n1)OCO3` yielded an Activity of 64.4%. For `O=[N+]([O-])c1ccc(/C=N/Nc2c3c(nc4ccccc24)CCCC3)cc1`, the Activity was 55.8%. `Cc1cc(N/N=C/c2ccc(C#N)cc2)c2ccccc2n1` gave an Activity of 85%. `N#Cc1ccc(/C=N/Nc2c3c(nc4ccccc24)CCCC3)cc1` gave an Activity of 81.5%. `Cc1cc(N/N=C/c2ccc([N+](=O)[O-])cc2)c2cc3c(cc2n1)OCO3` was tested, and the Activity was 27.2%. With `O=[N+]([O-])c1ccc(/C=N/Nc2ccnc3ccccc23)cc1` the Activity was 80.6%. In the case of `Cc1cc(N/N=C/c2cccc([N+](=O)[O-])c2)c2cc3c(cc2n1)OCO3`, the Activity is reported as 97.2%. Molecule `Cc1cc(N/N=C/c2ccc(C=O)cc2)c2cc3c(cc2n1)OCO3` has an Activity of 86.5%. In the case of `Cc1cc(N/N=C/c2ccc(C(F)(F)F)cc2)c2cc3c(cc2n1)OCO3`, the Activity is reported as 86.1%. `O=C(NNc1nc2ccccc2[nH]1)c1ccc([N+](=O)[O-])cc1` was tested, and the Activity was 46.7%. `O=[N+]([O-])c1ccc(/C=N/Nc2ccncc2)cc1` gave an Activity of 84.6%. `Cc1cc(NNC(=O)c2ccc(S(C)(=O)=O)cc2)c2cc3c(cc2n1)OCO3` was tested, and the Activity was 68.7%. With `C/C(=N\Nc1cc(C)nc2cc3c(cc12)OCO3)c1ccc([N+](=O)[O-])cc1` the Activity was 60.3%. In the case of `COC(=O)c1ccc(/C=N/Nc2cc(C)nc3cc4c(cc23)OCO4)cc1`, the Activity is reported as 85%. `Cc1cc(N/N=C/c2ccccc2C(F)(F)F)c2cc3c(cc2n1)OCO3` showed an Activity of 100%. `Cc1cc(N/N=C/c2ccc(S(C)(=O)=O)cc2)c2cc3c(cc2n1)OCO3` gave an Activity of 76.4%. Work on `Cc1cc(N/N=C/c2ccc(C#N)cc2)c2cc3c(cc2n1)OCO3` yielded an Activity of 29.2%. Work on `Cc1cc(N/N=C/c2ccc(Cl)cc2)c2cc3c(cc2n1)OCO3` yielded an Activity of 77.9%.

The molecules below were run against T2, Subtilisin-like protease 1 (Plasmodium falciparum, UniProt O61142) (assay: Inhibition of Plasmodium falciparum SUB1 by fluorimetric assay).
T2 sequence (O61142 whole entry): T1 sequence (whole entry)
`Cc1cc(N/N=C/c2ccccc2[N+](=O)[O-])c2cc3c(cc2n1)OCO3` was tested, and the IC50 was 40 µM. `COc1ccc2nc(C)cc(N/N=C/c3ccc([N+](=O)[O-])cc3)c2c1` was tested, and the IC50 was 20 µM. Work on `O=[N+]([O-])c1ccc(C=NNc2nc3ccccc3[nH]2)cc1` yielded an IC50 of over 50 µM. `COc1ccc2nccc(N/N=C/c3ccc([N+](=O)[O-])cc3)c2c1` was tested, and the IC50 was 50 µM. In the case of `O=[N+]([O-])c1ccc(/C=N/Nc2c3c(nc4ccccc24)CCCC3)cc1`, the IC50 is reported as over 50 µM. `Cc1cc(N/N=C/c2ccc([N+](=O)[O-])cc2)c2cc3c(cc2n1)OCO3` gave an IC50 of 20 µM. `Cc1cc(N/N=C/c2ccc(C#N)cc2)c2cc3c(cc2n1)OCO3` gave an IC50 of 40 µM.
